Reference: ChEMBL document CHEMBL3638598, “Pyrazolo pyrimidine derivatives” (2014)

These molecules were tested against G-prodeshotein coupled receptor 4 (Homo sapiens, UniProt P46093) (assay: Radio Ligand Binding Assay: Serial dilutions of compounds (stock in 10 mM DMSO) are prepared by first diluting the compounds in DMSO followed by a 1:50 dilution into assay buffer (10 mM HEPES, pH 8.0, 100 mM NaCl, 5 mM MgCl2, 1 mM CaCl2, 0.5% fatty acid-free BSA, 0.05% Tween-20). […] The desired amount of membranes (20 μg/well) is diluted with assay buffer. […] 100 μL of the membrane-suspension is added and the plate stirred for 60 minutes.).
Chain of G-prodeshotein coupled receptor 4 (P46093 whole entry): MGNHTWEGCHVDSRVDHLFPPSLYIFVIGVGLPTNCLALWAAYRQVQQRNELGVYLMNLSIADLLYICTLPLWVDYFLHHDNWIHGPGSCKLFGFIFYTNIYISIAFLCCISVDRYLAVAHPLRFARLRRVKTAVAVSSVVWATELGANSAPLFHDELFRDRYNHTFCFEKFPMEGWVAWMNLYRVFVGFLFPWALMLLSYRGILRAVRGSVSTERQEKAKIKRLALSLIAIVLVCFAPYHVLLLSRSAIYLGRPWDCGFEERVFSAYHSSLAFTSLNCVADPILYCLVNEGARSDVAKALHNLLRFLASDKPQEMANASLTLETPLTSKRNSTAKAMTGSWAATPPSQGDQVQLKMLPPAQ

| Compound | IC50 [nM] |
| --- | --- |
| CCc1nn2c(C)cc(C)nc2c1Cc1ccc(OC[C@H]2CC[C@@H](NC(=O)[C@H]3NCC[C@H]3O)CC2)cc1 | 54 |
| CCc1nn2c(C)cc(C)nc2c1Cc1ccc(OC[C@H]2CC[C@@H](N)CC2)cc1 | 35 |
| CCc1nn2c(C)cc(C)nc2c1Cc1ccc(OCC2CCNCC2)cc1 | 22 |
